From patent US20240327351A1, “AMIDE AND ETHER SUBSTITUTED N-(1H-INDOL-7-YL)BENZENESULFONAMIDES AND USES THEREOF” (TRIANA BIOMEDICINES, INC., priority 2021, published 2024)

Experiments:
DCAF15/RBM39 = DCAF15/RBM39 (Homo sapiens, UniProt Q14498+Q66K64); assay: AlphaLISA compound-induced DCAF15-RBM39 ternary complex formation; assay type: binding; conditions: His-tagged DCAF15 complex and biotin-carrying RBM39
Procedure: Example 6: Quantitative Evaluation of Compound-Induced Ternary Complex Formation Using Amplified Luminescent Proximity Homogeneous Assay
Compound-induced DCAF15-RBM39 ternary complex formation was monitored using AlphaLISA® assays (Perkin Elmer, Waltham, MA). Test compounds were first collected in a 384-well microplate (cat. #781280, Grenier Bio-One, Monroe, NC) as 2 mM stocks in 100% dimethyl sulfoxide (DMSO). These stocks were then serially diluted in DMSO by 3-fold into a new plate (cat. #781280, Grenier Bio-One, Monroe, NC) using a Mosquito HTS dispenser (mosquito@ HTS, SPT Labtech, Boston, MA). 0.2 ul of these diluted stocks were then dispensed into a 384-well Optiplate (cat. #6007290, Perkin Elmer, Waltham, MA) in duplicate wells, to assemble the final assay plate consisting of duplicated dose ranges. Separately, a protein mixture consisting of His-tagged DCAF15 complex and biotin-carrying RBM39, each at 408 nM (2.04×), was prepared in 50 mM HEPES, pH 7.5, 100 mM NaCl, 2 mM MgCl2, 0.1% BSA, 2 mM TCEP, 0.05% Tween-20 (dilution buffer). 9.8 ul of this protein mixture was then mixed with the compounds in the assay plate and incubated for one hour at room temperature. Reaction mixtures with no compounds added were included as negative controls, while a His-tagged and biotinylated GST protein was included to track general assay performance. Nickel Chelate AlphaLISA Acceptor beads (cat. #AL108M, Perkin Elmer, MA) and AlphaScreen Streptavidin Donor beads (cat. #6760002, Perkin Elmer, Waltham, MA) were prepared separately in the dilution buffer as 4× stocks (80 ug/ml). The beads were then added to the assay plate sequentially with incubation at room temperature for 1-2 hours after each addition. Signals were recorded using EnVision 2104 Multilabel Plate Reader (Perkin Elmer, Waltham, MA) and titration curves were generated in GraphPad Prism (7.00, GraphPad, La Jolla, CA).

DCAF15 = DCAF15 (Homo sapiens, UniProt Q66K64); assay: HTRF competition assay, binary interaction between compounds and DCAF15; assay type: binding; conditions: competition with Alexa Fluor 647 tracer, His-tagged DCAF15 complex
Procedure: Example 7: Measurement of Binary Interaction Between Compounds And DCAF15 Using Homogeneous Time Resolved Fluorescence (HTRF)
DCAF15 interactions with test compounds were monitored using HTRF competition assays (Cisbio, Bedford, MA). Test compounds were first collected in a 384-well microplate (cat. #781280, Grenier Bio-One, Monroe, NC) as 10 mM stocks in 100% dimethyl sulfoxide (DMSO). A second stock plate (cat. #781280, Grenier Bio-One, Monroe, NC) was prepared through 3-fold serial dilution in DMSO of the afore-mentioned stocks using a Mosquito HTS dispenser (mosquito@ HTS, SPT Labtech, Boston, MA). 0.2 ul of these diluted stocks were then dispensed into a 384-well Optiplate (cat. #6007290, Perkin Elmer, Waltham, MA) in duplicate wells, to assemble the assay plate. The tracer molecule containing an Alexa Fluor 647 probe was prepared in 25 mM HEPES pH 7.5, 100 mM NaCl, 0.1 mg/ml BSA, 0.005% Tween 20, 0.5 mM TCEP (dilution buffer) to 612 nM (2.04×). Separately, His-tagged DCAF15 complex was prepared at 32 nM (4×) in the dilution buffer, and mAb Anti-6His-Eu cryptate Gold (cat. #61H12KLA, Cisbio, Bedford, MA) at 4× dilution in the detection buffer (cat. #61 DB9RDF, Cisbio, Bedford, MA). These two solutions were mixed and incubated for 15 min at room temperature. 9.8 ul of the tracer solution and 10 ul of the DCAF15/mAb Anti-6His-Eu cryptate Gold mixture were added sequentially to each well in the assay plate. Reaction mixtures with no DCAF15 added were included as positive controls. The final mixture was incubated for an hour at room temperature and spun down briefly before data collection at 615 nm and 666 nm using En Vision 2104 Multilabel Plate Reader (Perkin Elmer, Bedford, MA). Binding was estimated based on ratiometric analysis and titration curves were generated in GraphPad Prism (7.00, GraphPad, La Jolla, CA).

SMILES	EC50 (DCAF15/RBM39) [µM]	IC50 (DCAF15) [µM]
Nc1ccc(S(=O)(=O)Nc2cnc3c(Cl)cccc3n2)cc1 [CQS, cloroquinoxaline sulfonamide, reference compound]	1 to 10	
NC1CCC(Oc2ccc(S(=O)(=O)Nc3ccc(Cl)c4c(Cl)c[nH]c34)cc2)CC1 (stereo not shown) [Compound 3]	< 1	1 to 10
N[C@H]1CC[C@H](Oc2ccc(S(=O)(=O)Nc3ccc(Cl)c4c(Cl)c[nH]c34)cc2)CC1 [Compound 5]	< 1	1 to 10
N[C@@H]1CCC[C@@H](Oc2cccc(S(=O)(=O)Nc3ccc(Cl)c4c(Cl)c[nH]c34)c2)C1 [Compound 6]	< 1	10 to 100
N[C@@H]1CCC[C@@H](Oc2ccc(S(=O)(=O)Nc3ccc(Cl)c4c(Cl)c[nH]c34)cc2)C1 [Compound 7]	< 1	1 to 10
O=C(N[C@@H]1CCC[C@@H](Oc2ccc(S(=O)(=O)Nc3ccc(Cl)c4c(Cl)c[nH]c34)cc2)C1)OCc1ccccc1 [Compound 13]	> 100	> 100
NC[C@H]1CC[C@H](Oc2ccc(S(=O)(=O)Nc3ccc(Cl)c4c(Cl)c[nH]c34)cc2)CC1 [Compound 15]	1 to 10	1 to 10
O=S(=O)(Nc1ccc(Cl)c2c(Cl)c[nH]c12)c1cccc(O[C@H]2CC[C@H](N3CCOCC3)CC2)c1 [Compound 16]	< 1	1 to 10
O=S(=O)(Nc1ccc(Cl)c2c(Cl)c[nH]c12)c1ccc(O[C@H]2CC[C@H](N3CCOCC3)CC2)cc1 [Compound 17]	< 1	10 to 100
O=S(=O)(Nc1ccc(Cl)c2c(Cl)c[nH]c12)c1cccc(O[C@H]2CC[C@H](OCc3ccccc3)CC2)c1 [Compound 18]	> 100	> 100
O=S(=O)(Nc1ccc(Cl)c2c(Cl)c[nH]c12)c1ccc(O[C@H]2CC[C@H](OCc3ccccc3)CC2)cc1 [Compound 19]	> 100	> 100
O=S(=O)(Nc1ccc(Cl)c2c(Cl)c[nH]c12)c1cccc(O[C@@H]2C[C@@H]3C[C@@H]3C2)c1 [Compound 20]	1 to 10	> 100
O=S(=O)(Nc1ccc(Cl)c2c(Cl)c[nH]c12)c1ccc(O[C@@H]2C[C@@H]3C[C@@H]3C2)cc1 [Compound 21]	1 to 10	> 100
CC1(Oc2ccc(S(=O)(=O)Nc3ccc(Cl)c4c(Cl)c[nH]c34)cc2)CCNCC1 [Compound 22, N-(3,4-dichloro-1H-indol-7-yl)-4-((4-methylpiperidin-4-yl)oxy)benzenesulfonamide]	< 1	1 to 10
CC1(Oc2ccc(S(=O)(=O)Nc3ccc(Cl)c4c(Cl)c[nH]c34)cc2)CCN(CCO)CC1 [Compound 23, N-(3,4-dichloro-1H-indol-7-yl)-4-((1-(2-hydroxyethyl)-4-methylpiperidin-4-yl)oxy)benzenesulfonamide]	< 1	1 to 10
CN1CC2(CC(Oc3ccc(S(=O)(=O)Nc4ccc(Cl)c5c(Cl)c[nH]c45)cc3)C2)C1 [Compound 24, N-(3,4-dichloro-1H-indol-7-yl)-4-((2-methyl-2-azaspiro[3.3]heptan-6-yl)oxy)benzenesulfonamide]	< 1	1 to 10
O=S(=O)(Nc1ccc(Cl)c2c(Cl)c[nH]c12)c1ccc(OC2CC3(CNC3)C2)cc1 [Compound 25, 4-((2-azaspiro[3.3]heptan-6-yl)oxy)-N-(3,4-dichloro-1H-indol-7-yl)benzenesulfonamide]	< 1	1 to 10
O=S(=O)(Nc1ccc(Cl)c2c(Cl)c[nH]c12)c1cccc(OC2CCC3(CC2)CNC3)c1 [Compound 26]	< 1	10 to 100

SMILES	EC50 (DCAF15/RBM39) [µM]	IC50 (DCAF15) [µM]
O=S(=O)(Nc1ccc(Cl)c2c(Cl)c[nH]c12)c1ccc(OC2CCC3(CC2)CNC3)cc1 [Compound 27]	1 to 10	1 to 10
O=S(=O)(Nc1ccc(Cl)c2c(Cl)c[nH]c12)c1cccc(OC2CCC3(CCNCC3)CC2)c1 [Compound 32]	1 to 10	10 to 100
O=S(=O)(Nc1ccc(Cl)c2c(Cl)c[nH]c12)c1ccc(Oc2ccccc2)c(Cl)c1 [Compound 34]	1 to 10	> 100
O=S(=O)(Nc1ccc(Cl)c2c(Cl)c[nH]c12)c1ccc(Oc2ccc(Br)cc2)cc1 [Compound 35]	10 to 100	> 100
O=S(=O)(Nc1ccc(Cl)c2c(Cl)c[nH]c12)c1ccc(Oc2ccc(F)cc2)cc1 [Compound 36]	1 to 10	10 to 100
N#Cc1ccc(Oc2ccc(S(=O)(=O)Nc3ccc(Cl)c4c(Cl)c[nH]c34)cc2)cc1 [Compound 37]	1 to 10	> 100
O=S(=O)(Nc1ccc(Cl)c2c(Cl)c[nH]c12)c1ccc(OC(F)F)c(F)c1 [Compound 38]	< 1	1 to 10
O=S(=O)(Nc1ccc(Cl)c2c(Cl)c[nH]c12)c1ccc(OCC2COC2)cc1 [Compound 40]	< 1	> 100
CN1CC[C@@H](c2ccc(F)cc2)[C@H](COc2cccc(S(=O)(=O)Nc3ccc(Cl)c4c(Cl)c[nH]c34)c2)C1 [Compound 41]	< 1	1 to 10
CN1CC[C@@H](c2ccc(F)cc2)[C@H](COc2ccc(S(=O)(=O)Nc3ccc(Cl)c4c(Cl)c[nH]c34)cc2)C1 [Compound 42]	1 to 10	1 to 10
CCOc1cc(N2CCC[C@H](COc3cccc(S(=O)(=O)Nc4ccc(Cl)c5c(Cl)c[nH]c45)c3)C2)ncn1 [Compound 43]	1 to 10	> 100
CCOc1cc(N2CCC[C@H](COc3ccc(S(=O)(=O)Nc4ccc(Cl)c5c(Cl)c[nH]c45)cc3)C2)ncn1 [Compound 44]	1 to 10	> 100
O=S(=O)(Nc1ccc(Cl)c2c(Cl)c[nH]c12)c1cccc(OC[C@@H]2CCCNC2)c1 [Compound 45]	< 1	10 to 100
O=S(=O)(Nc1ccc(Cl)c2c(Cl)c[nH]c12)c1ccc(OC[C@@H]2CCCNC2)cc1 [Compound 46]	1 to 10	10 to 100
O=S(=O)(Nc1ccc(Cl)c2c(Cl)c[nH]c12)c1cccc(OC[C@H]2[C@@H]3CNC[C@@H]32)c1 [Compound 47]	< 1	10 to 100
NS(=O)(=O)c1ccc(S(=O)(=O)Nc2cccc3c(Cl)c[nH]c23)cc1 [Indisulam, indisulam, reference compound]	< 1	
O=C(NS(=O)(=O)c1ccc(Br)s1)c1ccc(Cl)cc1Cl [Tasisulam, tasisulam, reference compound]	1 to 10	
